Data from the supplement of paper PMC11451515.

Tested on: NOMO1
Experiment: cell viability relative to DMSO control; higher = less cytotoxic
Settings: 48 h
How it was run: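 Three leukemia lines were tested: NOMO1 and SEM at 500 cells/well and P12-Ichikawa at 1000 cells/well. Each was adapted for at least four passages in each medium and seeded in 5 μl in 1536-well plates, and library compounds in DMSO were pin-dosed from 47 μM to 0.79 nM in 11 threefold steps. After 48 h at 37°C, CellTiter-Glo One luminescence was read. Viability is a percentage relative to DMSO wells on each plate, with cell-free wells as background.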

[1] = HPLM + 10% dialyzed FBS, 0.000781 µM
[2] = HPLM + 10% dialyzed FBS, 0.00234 µM
[3] = HPLM + 10% dialyzed FBS, 0.00702 µM
[4] = HPLM + 10% dialyzed FBS, 0.0211 µM
[5] = HPLM + 10% dialyzed FBS, 0.0632 µM
[6] = HPLM + 10% dialyzed FBS, 0.19 µM
[7] = HPLM + 10% dialyzed FBS, 0.569 µM
[8] = HPLM + 10% dialyzed FBS, 1.71 µM
[9] = HPLM + 10% dialyzed FBS, 5.12 µM
[10] = HPLM + 10% dialyzed FBS, 15.4 µM
[11] = HPLM + 10% dialyzed FBS, 46.1 µM
[12] = RPMI 5 mM glucose + 10% FBS, 0.000781 µM
[13] = RPMI 5 mM glucose + 10% FBS, 0.00234 µM
[14] = RPMI 5 mM glucose + 10% FBS, 0.00702 µM
[15] = RPMI 5 mM glucose + 10% FBS, 0.0211 µM
[16] = RPMI 5 mM glucose + 10% FBS, 0.0632 µM
[17] = RPMI 5 mM glucose + 10% FBS, 0.19 µM
[18] = RPMI 5 mM glucose + 10% FBS, 0.569 µM
[19] = RPMI 5 mM glucose + 10% FBS, 1.71 µM
[20] = RPMI 5 mM glucose + 10% FBS, 5.12 µM
[21] = RPMI 5 mM glucose + 10% FBS, 15.4 µM
[22] = RPMI 5 mM glucose + 10% FBS, 46.1 µM
[23] = RPMI 5 mM glucose + 10% dialyzed FBS, 0.000781 µM
[24] = RPMI 5 mM glucose + 10% dialyzed FBS, 0.00234 µM
[25] = RPMI 5 mM glucose + 10% dialyzed FBS, 0.00702 µM
[26] = RPMI 5 mM glucose + 10% dialyzed FBS, 0.0211 µM
[27] = RPMI 5 mM glucose + 10% dialyzed FBS, 0.0632 µM
[28] = RPMI 5 mM glucose + 10% dialyzed FBS, 0.19 µM
[29] = RPMI 5 mM glucose + 10% dialyzed FBS, 0.569 µM
[30] = RPMI 5 mM glucose + 10% dialyzed FBS, 1.71 µM
[31] = RPMI 5 mM glucose + 10% dialyzed FBS, 5.12 µM
[32] = RPMI 5 mM glucose + 10% dialyzed FBS, 15.4 µM
[33] = RPMI 5 mM glucose + 10% dialyzed FBS, 46.1 µM

Structure (SMILES)	cell viability [1] [%]	cell viability [2] [%]	cell viability [3] [%]	cell viability [4] [%]	cell viability [5] [%]	cell viability [6] [%]	cell viability [7] [%]	cell viability [8] [%]	cell viability [9] [%]	cell viability [10] [%]	cell viability [11] [%]	cell viability [12] [%]	cell viability [13] [%]	cell viability [14] [%]	cell viability [15] [%]	cell viability [16] [%]	cell viability [17] [%]	cell viability [18] [%]	cell viability [19] [%]	cell viability [20] [%]	cell viability [21] [%]	cell viability [22] [%]	cell viability [23] [%]	cell viability [24] [%]	cell viability [25] [%]	cell viability [26] [%]	cell viability [27] [%]	cell viability [28] [%]	cell viability [29] [%]	cell viability [30] [%]	cell viability [31] [%]	cell viability [32] [%]	cell viability [33] [%]
O=C\1N(N\C=C1[N]2C=CN=N2)C3=NC=NC(=C3)N4CCOCC4	81.9	84.5	82	83.9	25.7	25.8	26.3	23.8	28.3	28.4	26.6	71.2	83.9	82.7	87.8	71	16.8	12.8	14.9	15.6	14.2	16.5	70.9	79.4	81.5	88.9	72.9	29.9	14.4	19.6	18.6	19.4	18.8
CC(/C=C/C(=O)NO)=C\[C@@H](C)C(=O)c1ccc(N(C)C)cc1	112	104	107	104	134	122	108	57	5.04	4.16	2.85	89.8	100	109	98.8	93.9	109	89.2	59.5	5.72	3.5	2.44	111	120	122	114	108	115	95.1	65	5.26	5	2.94
CC(C)c1cc(C(=O)N2Cc3ccc(CN4CCN(C)CC4)cc3C2)c(O)cc1O	125	118	109	108	126	128	70.8	24	20.3	19.5	19.9	97.1	107	105	110	105	117	62.2	21.3	15.9	17.5	14.8	119	120	111	117	119	127	71.7	33.9	20.5	20.1	17.6
CN1C(=O)C[C@H](C(=O)N[C@@H](Cc2cnc[nH]2)C(=O)N2CCC[C@H]2C(N)=O)NC1=O	119	122	109	113	116	125	126	130	104	108	107	126	115	121	119	126	132	114	124	116	115	114											
Cc1[nH]c(/C=C2\C(=O)Nc3ccccc32)c(C)c1CCC(=O)O	92.3	101	108	114	113	106	99.9	118	105	51.3	23.8	95.9	112	108	114	115	123	111	104	110	58.7	18.4	97	118	96.1	98.1	113	106	102	109	103	101	22.7
CCOC(=O)c1cncn1[C@H](C)c1ccccc1												118	116	135	128	112	115	121	127	117	119	125											
CCC\C1=C\C(=O)NC(=S)N1	81.7	104	112	131	113	126	121	133	72.3	35	25.8	101	113	123	123	114	109	116	119	111	29.4	20.9	103	122	115	118	109	109	113	123	99.7	100	31.7
C[C@H]1[C@@H](C(=O)C[C@H]2O[C@@H]3O[C@]4(C)CC[C@H]5[C@H](C)CC[C@@H]([C@H]2C)[C@@]35OO4)O[C@@H]2O[C@]3(C)CC[C@H]4[C@H](C)CC[C@@H]1[C@@]24OO3	114	121	122	102	127	115	116	102	111	67	21	103	117	102	99.4	110	110	103	109	105	58.4	24.8	114	131	105	120	122	107	93.9	95.2	96.2	69	24.6
CN1c2ccccc2C(=O)N2CCc3c([nH]c4ccccc34)C21 (centres undefined)	122	115	118	138	130	135	151	118	107	105	102	116	108	122	116	112	111	123	115	102	107	106											
COC[C@H](c1ccc(C(F)(F)F)cc1)N1CCN(C2(C)CCN(C(=O)c3c(C)ncnc3C)CC2)C[C@H]1C.O=C(O)/C=C\C(=O)O	85.7	106	106	107	114	99.8	111	70.7	63.5	62.2	49.9	87.9	95.7	101	97.5	93.8	103	91	83.8	65.1	56.3	62.8	83.9	108	92	104	99.8	105	101	91.8	75	50.9	51.7
Nc1nc(N)c2nc(-c3cccc(O)c3)c(-c3cccc(O)c3)nc2n1	124	135	110	128	116	126	123	108	79.6	47.8	17	106	115	102	116	112	117	105	111	91.6	90.6	4.68	119	106	107	112	114	110	105	108	96.7	78.5	42.2
N[S+](=O)([O-])c1cccc2c1C(=O)c1cccc(O)c1C2=O	105	115	112	105	119	106	107	85	91.6	78.7	4.98	110	101	103	98.5	115	107	91.9	94.9	88.2	97.1	3.99	97.6	104	97.3	103	102	107	108	94.9	94.3	82.9	4.93
ClC1=CC\2=C(NC(=O)\C(=C2N[C@@H]3CN4CCC3CC4)C5=NC6=C([NH]5)C=CC=C6)C=C1	121	123	121	123	129	49.3	36.5	35.6	32.3	28.4	17.3	113	120	123	110	103	46.4	23.4	17.5	18	12.4	13.4	101	105	113	108	117	44	23.7	20.4	25.2	18.6	18.2
C[C@]12CC[C@H]3[C@@H](C\C=C/4C[C@@H](O)CC[C@]34C)[C@@H]1CCC2=O	115	134	117	121	147	117	111	110	103	110	84.7	116	126	116	104	116	105	121	112	117	103	98	120	108	115	119	118	106	114	108	103	109	106
C[C@@H](NC(=O)c1ncnc(N)c1Cl)c1ncc(C(=O)Nc2cc(C(F)(F)F)c(Cl)cn2)s1												99.4	124	124	121	125	122	138	127	114	103	88.3											
COc1ccc2c(c1)c(CC(=O)OCC(=O)O)c(C)n2C(=O)c1ccc(Cl)cc1	123	131	122	136	117	131	128	114	123	120	123												112	137	110	142	117	133	120	135	115	123	106
CC1=C(CC(=O)O)c2cc(F)ccc2/C1=C\c1ccc([S+](C)[O-])cc1 (centres undefined)	121	122	106	123	125	107	140	99.6	103	101	113	125	118	105	132	115	110	112	113	114	110	112	128	119	119	123	139	139	119	109	104	107	99.6
